Results: PubChem BioAssay (NCI)
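In this assay, cells in 96-well plates receive the compound at five concentrations for 48 hours. Endpoints are linearly interpolated between the surrounding concentrations. Here, GI50 denotes the concentration required for 50% inhibition of growth. TGI marks complete inhibition of growth.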

Tests used:
Assay in all cases: inhibition of tumour cell growth, NCI panel, 48 h
MCF7 breast = tested on: MCF7 breast
HL-60(TB) leukemia = tested on: HL-60(TB) leukemia
SK-MEL-2 melanoma = tested on: SK-MEL-2 melanoma
CAKI-1 renal = tested on: CAKI-1 renal
RXF 393 renal = tested on: RXF 393 renal
K-562 leukemia = tested on: K-562 leukemia
SK-MEL-5 melanoma = tested on: SK-MEL-5 melanoma
HS 578T breast = tested on: HS 578T breast
SNB-19 CNS = tested on: SNB-19 CNS
UACC-62 melanoma = tested on: UACC-62 melanoma
HT29 colon = tested on: HT29 colon
MOLT-4 leukemia = tested on: MOLT-4 leukemia
SNB-75 CNS = tested on: SNB-75 CNS
UO-31 renal = tested on: UO-31 renal
SW-620 colon = tested on: SW-620 colon
NCI-H226 lung = tested on: NCI-H226 lung
MALME-3M melanoma = tested on: MALME-3M melanoma
A549 NSCLC = tested on: A549 NSCLC
M14 melanoma = tested on: M14 melanoma
HOP-92 NSCLC = tested on: HOP-92 NSCLC
UACC-257 melanoma = tested on: UACC-257 melanoma
NCI-H23 lung = tested on: NCI-H23 lung
T-47D breast = tested on: T-47D breast
LOX IMVI melanoma = tested on: LOX IMVI melanoma
SR leukemia = tested on: SR leukemia
TK-10 renal = tested on: TK-10 renal
SF-539 CNS = tested on: SF-539 CNS
A498 renal = tested on: A498 renal
KM12 colon = tested on: KM12 colon
SK-MEL-28 melanoma = tested on: SK-MEL-28 melanoma
OVCAR-8 ovarian = tested on: OVCAR-8 ovarian
RPMI-8226 leukemia = tested on: RPMI-8226 leukemia
OVCAR-4 ovarian = tested on: OVCAR-4 ovarian
SF-295 CNS = tested on: SF-295 CNS
OVCAR-3 ovarian = tested on: OVCAR-3 ovarian
IGROV1 ovarian = tested on: IGROV1 ovarian
MDA-MB-435 = tested on: MDA-MB-435
SN12C renal = tested on: SN12C renal
MDA-MB-231 breast = tested on: MDA-MB-231 breast
DU-145 prostate = tested on: DU-145 prostate
U251 CNS = tested on: U251 CNS
MDA-MB-468 breast = tested on: MDA-MB-468 breast
HCC-2998 colon = tested on: HCC-2998 colon
HCT-15 colon = tested on: HCT-15 colon
SF-268 CNS = tested on: SF-268 CNS
786-0 renal = tested on: 786-0 renal
HOP-62 NSCLC = tested on: HOP-62 NSCLC
SK-OV-3 ovarian = tested on: SK-OV-3 ovarian
COLO 205 colon = tested on: COLO 205 colon
CCRF-CEM leukemia = tested on: CCRF-CEM leukemia
NCI/ADR-RES ovarian = tested on: NCI/ADR-RES ovarian
BT-549 breast = tested on: BT-549 breast
OVCAR-5 ovarian = tested on: OVCAR-5 ovarian
NCI-H522 lung = tested on: NCI-H522 lung
PC-3 prostate = tested on: PC-3 prostate
NCI-H460 lung = tested on: NCI-H460 lung
ACHN renal = tested on: ACHN renal
EKVX NSCLC = tested on: EKVX NSCLC
HCT-116 colon = tested on: HCT-116 colon

COc1ccc(Cc2nn(CC(=O)N/N=C/c3ccc(Br)cc3)c(=O)c3c(C)noc23)cc1
GI50 (MCF7 breast): 3.44 µM
TGI (MCF7 breast): > 100 µM
GI50 (HL-60(TB) leukemia): > 100 µM
TGI (HL-60(TB) leukemia): > 100 µM
GI50 (SK-MEL-2 melanoma): 16.4 µM
TGI (SK-MEL-2 melanoma): 32.1 µM
GI50 (CAKI-1 renal): 5.21 µM
TGI (CAKI-1 renal): 19.1 µM
GI50 (RXF 393 renal): 2.75 µM
TGI (RXF 393 renal): 11.4 µM
GI50 (K-562 leukemia): 14.8 µM
TGI (K-562 leukemia): > 100 µM
GI50 (SK-MEL-5 melanoma): > 100 µM
TGI (SK-MEL-5 melanoma): > 100 µM
GI50 (HS 578T breast): 3.61 µM
TGI (HS 578T breast): 61.2 µM
GI50 (SNB-19 CNS): 14.6 µM
TGI (SNB-19 CNS): 33.1 µM
GI50 (UACC-62 melanoma): 14.1 µM
TGI (UACC-62 melanoma): > 100 µM
GI50 (HT29 colon): 5.05 µM
TGI (HT29 colon): > 100 µM
GI50 (MOLT-4 leukemia): 7.82 µM
TGI (MOLT-4 leukemia): > 100 µM
GI50 (SNB-75 CNS): 0.287 µM
TGI (SNB-75 CNS): 1.41 µM
GI50 (UO-31 renal): 2.98 µM
TGI (UO-31 renal): 15.3 µM
GI50 (SW-620 colon): 3.07 µM
TGI (SW-620 colon): > 100 µM
GI50 (NCI-H226 lung): 2.52 µM
TGI (NCI-H226 lung): 13.4 µM
GI50 (MALME-3M melanoma): 5.48 µM
TGI (MALME-3M melanoma): 29.1 µM
GI50 (A549 NSCLC): 1.49 µM
TGI (A549 NSCLC): > 100 µM
GI50 (M14 melanoma): 18.5 µM
TGI (M14 melanoma): > 100 µM
GI50 (HOP-92 NSCLC): 4.98 µM
TGI (HOP-92 NSCLC): 21.2 µM
GI50 (UACC-257 melanoma): > 100 µM
TGI (UACC-257 melanoma): > 100 µM
GI50 (NCI-H23 lung): 7.06 µM
TGI (NCI-H23 lung): 22.8 µM
GI50 (T-47D breast): 0.97 µM
TGI (T-47D breast): 9.48 µM
GI50 (LOX IMVI melanoma): 3.54 µM
TGI (LOX IMVI melanoma): 52.8 µM
GI50 (SR leukemia): 14.6 µM
TGI (SR leukemia): > 100 µM
GI50 (TK-10 renal): 10.1 µM
TGI (TK-10 renal): 23.9 µM
GI50 (SF-539 CNS): 11.9 µM
TGI (SF-539 CNS): 25.4 µM
GI50 (A498 renal): 3.01 µM
TGI (A498 renal): 8.8 µM
GI50 (KM12 colon): > 100 µM
TGI (KM12 colon): > 100 µM
GI50 (SK-MEL-28 melanoma): 36.9 µM
TGI (SK-MEL-28 melanoma): > 100 µM
GI50 (OVCAR-8 ovarian): 17.4 µM
TGI (OVCAR-8 ovarian): > 100 µM
GI50 (RPMI-8226 leukemia): 69.9 µM
TGI (RPMI-8226 leukemia): > 100 µM
GI50 (OVCAR-4 ovarian): 0.511 µM
TGI (OVCAR-4 ovarian): 2.12 µM
GI50 (SF-295 CNS): 10.3 µM
TGI (SF-295 CNS): 23.4 µM
GI50 (OVCAR-3 ovarian): 2.27 µM
TGI (OVCAR-3 ovarian): 10.9 µM
GI50 (IGROV1 ovarian): 12.4 µM
TGI (IGROV1 ovarian): 32.3 µM
GI50 (MDA-MB-435): 30.5 µM
TGI (MDA-MB-435): > 100 µM
GI50 (SN12C renal): 1.63 µM
TGI (SN12C renal): 11.5 µM
GI50 (MDA-MB-231 breast): 5.73 µM
TGI (MDA-MB-231 breast): 25.8 µM
GI50 (DU-145 prostate): 16.1 µM
TGI (DU-145 prostate): > 100 µM
GI50 (U251 CNS): 2.03 µM
TGI (U251 CNS): 13.4 µM
GI50 (MDA-MB-468 breast): 7.58 µM
TGI (MDA-MB-468 breast): 27.4 µM
GI50 (HCC-2998 colon): 34.5 µM
TGI (HCC-2998 colon): > 100 µM
GI50 (HCT-15 colon): 12.3 µM
TGI (HCT-15 colon): > 100 µM
GI50 (SF-268 CNS): 14.8 µM
TGI (SF-268 CNS): 52.6 µM
GI50 (786-0 renal): 1.48 µM
TGI (786-0 renal): 6.94 µM
GI50 (HOP-62 NSCLC): 10.6 µM
TGI (HOP-62 NSCLC): 26.4 µM
GI50 (SK-OV-3 ovarian): 5.55 µM
TGI (SK-OV-3 ovarian): 20.1 µM
GI50 (COLO 205 colon): > 100 µM
TGI (COLO 205 colon): > 100 µM
GI50 (CCRF-CEM leukemia): 7.87 µM
TGI (CCRF-CEM leukemia): > 100 µM
GI50 (NCI/ADR-RES ovarian): 4.6 µM
TGI (NCI/ADR-RES ovarian): > 100 µM
GI50 (BT-549 breast): 18.2 µM
TGI (BT-549 breast): 58 µM
GI50 (OVCAR-5 ovarian): 16.8 µM
TGI (OVCAR-5 ovarian): > 100 µM
GI50 (NCI-H522 lung): 8.77 µM
TGI (NCI-H522 lung): 41.6 µM
GI50 (PC-3 prostate): 10.4 µM
TGI (PC-3 prostate): > 100 µM
GI50 (NCI-H460 lung): 1.56 µM
TGI (NCI-H460 lung): 16.4 µM
GI50 (ACHN renal): 2.65 µM
TGI (ACHN renal): 11.2 µM
GI50 (EKVX NSCLC): 14.5 µM
TGI (EKVX NSCLC): 83.1 µM
GI50 (HCT-116 colon): 0.81 µM
TGI (HCT-116 colon): 10.3 µM
